Key:
Details in all cases: banded MIC grade
Aspergillus fumigatus = test: Minimum inhibitory concentration, YAG medium; type: cell-based
Outline: (§1)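 MIC, in mg/L, defined as the lowest drug level inhibiting growth by >70% relative to drug-free wells, judged by OD 485 nm after 24 hrs at 35° C. Spores (1-2×10^4 cfu/mL) were grown in YAG medium against doubling dilutions, usually 50-0.05 mg/L, repeated at 0.5-0.0005 mg/L where needed.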

A. fumigatus 210 [1] = test: Minimum inhibitory concentration, YAG medium; type: cell-based, Aspergillus fumigatus
Outline: as §1

A. terreus 49 [2] = test: Minimum inhibitory concentration, YAG medium; type: cell-based, Aspergillus terreus
Outline: (§2)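 MIC values (mg/L) were derived from well optical density at 485 nm. Plates with Aspergillus spores and doubling aqueous dilutions of compound (5 mg/mL DMSO stock) had been incubated at 35° C for 24 hrs.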

Aspergillus flavus = test: Minimum inhibitory concentration, YAG medium; type: cell-based
Outline: as §2

Aspergillus niger = test: Minimum inhibitory concentration, YAG medium; type: cell-based
Outline: as §2

Aspergillus terreus = test: Minimum inhibitory concentration, YAG medium; type: cell-based
Outline: as §2

A. flavus = test: Minimum inhibitory concentration, RPMI medium; type: cell-based
Outline: (§3)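 Thawed 5 mg/mL DMSO stocks are vortexed, diluted into sterile water and serially halved in water. The MIC test is then run in RPMI 1640 at 35° C for 24-48 hrs. Wells are read at OD 485 nm.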

A. niger = test: Minimum inhibitory concentration, RPMI medium; type: cell-based
Outline: as §3

A. terreus 49 [3] = test: Minimum inhibitory concentration, RPMI medium; type: cell-based
Outline: as §3

A. terreus = test: Minimum inhibitory concentration, RPMI medium; type: cell-based
Outline: as §3

C. albicans = test: Minimum inhibitory concentration, RPMI medium; type: cell-based
Outline: as §3

C. glabrata = test: Minimum inhibitory concentration, RPMI medium; type: cell-based
Outline: as §3

C. krusei = test: Minimum inhibitory concentration, RPMI medium; type: cell-based
Outline: as §3

C. parapsilosis = test: Minimum inhibitory concentration, RPMI medium; type: cell-based
Outline: as §3

C. tropicalis = test: Minimum inhibitory concentration, RPMI medium; type: cell-based
Outline: as §3

A. fumigatus 210 [4] = test: Minimum inhibitory concentration, RPMI medium; type: cell-based
Outline: (§4)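 Compound doubling dilutions were prepared from 5 mg/mL DMSO stock; fungus was diluted in RPMI 1640 with 2% glucose and 0.135 M MOPS (pH 7.0), giving inocula of 1-2×10^4 cfu/mL and drug range 50-0.05 mg/L. Plates ran 24-48 hrs at 35° C; MIC is the lowest concentration giving >80% growth inhibition by OD485 versus drug-free control.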

A. fumigatus = test: Minimum inhibitory concentration, RPMI medium; type: cell-based
Outline: as §4

SMILES | MIC grade, A. FUMIGATUS, YAG media (Aspergillus fumigatus) | MIC grade, A. FUMIGATUS 210, YAG media (A. fumigatus 210 [1]) | MIC grade, A. TERREUS 49, YAG media (A. terreus 49 [2]) | MIC grade, A. FLAVUS, YAG media (Aspergillus flavus) | MIC grade, A. NIGER, YAG media (Aspergillus niger) | MIC grade, A. TERREUS, YAG media (Aspergillus terreus) | MIC grade, A. FLAVUS, RPMI media (A. flavus) | MIC grade, A. NIGER, RPMI media (A. niger) | MIC grade, A. TERREUS 49, RPMI media (A. terreus 49 [3]) | MIC grade, A. TERREUS, RPMI media (A. terreus) | MIC grade, C. ALBICANS, RPMI media (C. albicans) | MIC grade, C. GLABRATA, RPMI media (C. glabrata) | MIC grade, C. KRUSEI, RPMI media (C. krusei) | MIC grade, C. PARAPSILOSIS, RPMI media (C. parapsilosis) | MIC grade, C. TROPICALIS, RPMI media (C. tropicalis) | MIC grade, A. FUMIGATUS 210, RPMI media (A. fumigatus 210 [4]) | MIC grade, A. FUMIGATUS, RPMI media (A. fumigatus)
CCc1ccc(OCCCCC2=NN=C(N)SC2)cc1 | 3 (3: 0.2-1 mg/L) | 3 (3: 0.2-1 mg/L) | 4 (4: <0.2 mg/L) | 4 (4: <0.2 mg/L) | 3 (3: 0.2-1 mg/L) | 4 (4: <0.2 mg/L) | 2 (2: 5-20 mg/L) | 2 (2: 5-20 mg/L) | 2 (2: 5-20 mg/L) | 3 (3: 1-5 mg/L) | 4 (4: <1 mg/L) | 2 (2: 5-20 mg/L) | 4 (4: <1 mg/L) | 4 (4: <1 mg/L) | 4 (4: <1 mg/L) | 2 (2: 5-20 mg/L) | 2 (2: 5-20 mg/L)
NC1=NN=C(CCCCOCc2ccc(F)cc2F)CS1 | 4 (4: <0.2 mg/L) | 4 (4: <0.2 mg/L) | 4 (4: <0.2 mg/L) | 4 (4: <0.2 mg/L) | 4 (4: <0.2 mg/L) | 4 (4: <0.2 mg/L) | 4 (4: <1 mg/L) | 4 (4: <1 mg/L) | 4 (4: <1 mg/L) | 4 (4: <1 mg/L) | 4 (4: <1 mg/L) | 4 (4: <1 mg/L) | 4 (4: <1 mg/L) | 4 (4: <1 mg/L) | 4 (4: <1 mg/L) | 3 (3: 1-5 mg/L) | 4 (4: <1 mg/L)
NC1=NN=C(CCCCOCc2cccc(Cl)c2)CS1 | 4 (4: <0.2 mg/L) | 4 (4: <0.2 mg/L) | 4 (4: <0.2 mg/L) | 4 (4: <0.2 mg/L) | 4 (4: <0.2 mg/L) | 4 (4: <0.2 mg/L) | 4 (4: <1 mg/L) | 3 (3: 1-5 mg/L) | 3 (3: 1-5 mg/L) | 3 (3: 1-5 mg/L) | 4 (4: <1 mg/L) | 3 (3: 1-5 mg/L) | 4 (4: <1 mg/L) | 4 (4: <1 mg/L) | 4 (4: <1 mg/L) | 2 (2: 5-20 mg/L) | 4 (4: <1 mg/L)
NC1=NN=C(CCCCOCc2ccc(C(F)(F)F)cc2)CS1 | 4 (4: <0.2 mg/L) | 4 (4: <0.2 mg/L) | 4 (4: <0.2 mg/L) | 4 (4: <0.2 mg/L) | 4 (4: <0.2 mg/L) | 4 (4: <0.2 mg/L) | 3 (3: 1-5 mg/L) | 3 (3: 1-5 mg/L) | 2 (2: 5-20 mg/L) | 3 (3: 1-5 mg/L) | 4 (4: <1 mg/L) | 2 (2: 5-20 mg/L) | 4 (4: <1 mg/L) | 4 (4: <1 mg/L) | 4 (4: <1 mg/L) | 2 (2: 5-20 mg/L) | 2 (2: 5-20 mg/L)
CCCCc1ccc(COCCCCC2=NN=C(N)SC2)cc1 | 1 (1: ≥5 mg/L) | 1 (1: ≥5 mg/L) | 2 (2: 1-5 mg/L) | 3 (3: 0.2-1 mg/L) | 3 (3: 0.2-1 mg/L) | 2 (2: 1-5 mg/L) | 2 (2: 5-20 mg/L) | 2 (2: 5-20 mg/L) | 1 (1: ≥20 mg/L) | 1 (1: ≥20 mg/L) | 2 (2: 5-20 mg/L) | 2 (2: 5-20 mg/L) | 3 (3: 1-5 mg/L) | 3 (3: 1-5 mg/L) | 2 (2: 5-20 mg/L) | 1 (1: ≥20 mg/L) | 1 (1: ≥20 mg/L)
Cc1cc(COCCCCC2=NN=C(N)SC2)ccc1F | 4 (4: <0.2 mg/L) | 4 (4: <0.2 mg/L) | 4 (4: <0.2 mg/L) | 4 (4: <0.2 mg/L) | 4 (4: <0.2 mg/L) | 4 (4: <0.2 mg/L) | 4 (4: <1 mg/L) | 3 (3: 1-5 mg/L) | 3 (3: 1-5 mg/L) | 3 (3: 1-5 mg/L) | 4 (4: <1 mg/L) | 3 (3: 1-5 mg/L) | 4 (4: <1 mg/L) | 4 (4: <1 mg/L) | 4 (4: <1 mg/L) | 2 (2: 5-20 mg/L) | 4 (4: <1 mg/L)
NC1=NN=C(CCCCOCc2ccc(F)cc2)CS1 | 2 (2: 1-5 mg/L) | 2 (2: 1-5 mg/L) | 2 (2: 1-5 mg/L) | 2 (2: 1-5 mg/L) | 2 (2: 1-5 mg/L) | 2 (2: 1-5 mg/L) | 1 (1: ≥20 mg/L) | 1 (1: ≥20 mg/L) | 1 (1: ≥20 mg/L) | 1 (1: ≥20 mg/L) | 2 (2: 5-20 mg/L) | 2 (2: 5-20 mg/L) | 2 (2: 5-20 mg/L) | 2 (2: 5-20 mg/L) | 2 (2: 5-20 mg/L) | 1 (1: ≥20 mg/L) | 1 (1: ≥20 mg/L)
COc1ccc(COCCCCC2=NN=C(N)SC2)cc1 | 2 (2: 1-5 mg/L) | 2 (2: 1-5 mg/L) | 2 (2: 1-5 mg/L) | 2 (2: 1-5 mg/L) | 2 (2: 1-5 mg/L) | 2 (2: 1-5 mg/L) | 1 (1: ≥20 mg/L) | 1 (1: ≥20 mg/L) | 1 (1: ≥20 mg/L) | 1 (1: ≥20 mg/L) | 2 (2: 5-20 mg/L) | 2 (2: 5-20 mg/L) | 2 (2: 5-20 mg/L) | 2 (2: 5-20 mg/L) | 2 (2: 5-20 mg/L) | 1 (1: ≥20 mg/L) | 1 (1: ≥20 mg/L)
Cc1cccc(COCCCCC2=NN=C(N)SC2)c1 | 3 (3: 0.2-1 mg/L) | 3 (3: 0.2-1 mg/L) | 3 (3: 0.2-1 mg/L) | 3 (3: 0.2-1 mg/L) | 3 (3: 0.2-1 mg/L) | 3 (3: 0.2-1 mg/L) | 3 (3: 1-5 mg/L) | 2 (2: 5-20 mg/L) | 2 (2: 5-20 mg/L) | 2 (2: 5-20 mg/L) | 3 (3: 1-5 mg/L) | 2 (2: 5-20 mg/L) | 3 (3: 1-5 mg/L) | 3 (3: 1-5 mg/L) | 3 (3: 1-5 mg/L) | 2 (2: 5-20 mg/L) | 3 (3: 1-5 mg/L)
